Earlier results as cited in patent US20120135949A1, “COMBINATION THERAPY FOR TREATING HCV INFECTION” (BOEHRINGER INGELHEIM INTERNATIONAL GMBH, priority 2010, published 2012).

Test system: HCV
Settings: compound (1) monotherapy, 14 days, 1a and 1b patients

C=C[C@@H]1C[C@]1(NC(=O)[C@@H]1C[C@H](Oc2cc(-c3csc(NC(=O)C(C)C)n3)nc3c(Br)c(OC)ccc23)CN1C(=O)[C@@H](NC(=O)OC1CCCC1)C(C)(C)C)C(=O)O [Compound (1)]
Virologic rebound during the treatment period: vast majority of both 1a and 1b patients demonstrated virologic rebound
